Reference: the CheMixHub viscosity set
“And” between values parts separate entries of the source, which are not always exact repeats. Identical values can stand only once. ± gives the uncertainty stated by the source.

Tests used:
[1] = xn = mol fraction of the nth substance listed

[Cl-].[Cl-].[Cl-].[Sb+3]
Settings | viscosity [mPa·s]
323.15 K, 101 kPa | 3.926 ± 0.16

CCC(C)(C)C
Settings | viscosity [mPa·s]
298 K, 101.33 kPa | 0.3406 ± 0.0056

Cc1ccncc1
Settings | viscosity [mPa·s]
298.15 K, 101.33 kPa | 0.86 ± 0.011

CCCC(=O)OCC
Settings | viscosity [mPa·s]
303.15 K, 101 kPa | 0.5776 ± 0.0054

CCCCCCCCCC(=O)OCC
Settings | viscosity [mPa·s]
298.15 K, 100 kPa | 2.112 ± 0.026

O=C(O)C(Cl)(Cl)Cl
Settings | viscosity
323.15 K, 101 kPa | 4.824 ± 0.2 mPa·s (2×) and 5.323 ± 0.069 mPa·s and 4.797 ± 0.12 mPa·s

CCCCN + ClC(Cl)Cl
viscosity [mPa·s], [1], 101 kPa
Settings | 293.15 K | 298.15 K | 303.15 K | 308.15 K
x1 = 0.0601 | 0.59 ± 0.016 | 0.555 ± 0.015 | 0.529 ± 0.015 | 0.516 ± 0.014
x1 = 0.1276 | 0.603 ± 0.016 | 0.567 ± 0.015 | 0.535 ± 0.015 | 0.525 ± 0.014
x1 = 0.1585 | 0.61 ± 0.016 | 0.571 ± 0.016 | – | 0.529 ± 0.015
x1 = 0.2301 | 0.623 ± 0.017 | 0.583 ± 0.016 | 0.554 ± 0.015 | 0.535 ± 0.015
x1 = 0.2658 | 0.631 ± 0.017 | 0.587 ± 0.016 | 0.558 ± 0.015 | 0.538 ± 0.015
x1 = 0.336 | 0.641 ± 0.017 | 0.598 ± 0.016 | – | 0.541 ± 0.015
x1 = 0.4049 | 0.647 ± 0.017 | 0.6 ± 0.016 | 0.567 ± 0.015 | 0.543 ± 0.015
x1 = 0.4341 | 0.649 ± 0.017 | 0.599 ± 0.016 | 0.568 ± 0.015 | 0.541 ± 0.015
x1 = 0.4542 | 0.649 ± 0.017 | 0.6 ± 0.016 | – | 0.54 ± 0.015
x1 = 0.4991 | 0.645 ± 0.017 | 0.598 ± 0.016 | 0.561 ± 0.015 | 0.536 ± 0.015
x1 = 0.6045 | 0.63 ± 0.017 | 0.585 ± 0.016 | 0.548 ± 0.015 | 0.524 ± 0.014
x1 = 0.6156 | 0.627 ± 0.017 | 0.58 ± 0.016 | – | 0.52 ± 0.014
x1 = 0.6443 | 0.621 ± 0.017 | 0.573 ± 0.016 | 0.54 ± 0.015 | 0.516 ± 0.014
x1 = 0.7093 | 0.604 ± 0.016 | 0.559 ± 0.015 | 0.526 ± 0.014 | 0.503 ± 0.014
x1 = 0.7325 | 0.596 ± 0.016 | 0.552 ± 0.015 | 0.52 ± 0.014 | 0.496 ± 0.014
x1 = 0.8611 | 0.556 ± 0.015 | 0.514 ± 0.014 | 0.487 ± 0.014 | 0.46 ± 0.013
x1 = 0.9302 | 0.532 ± 0.015 | 0.492 ± 0.014 | 0.463 ± 0.013 | 0.437 ± 0.012

CCCC(=O)OCC + Clc1ccccc1
viscosity [mPa·s], [1], 101.3 kPa
Settings | 308.15 K | 318.15 K
x1 = 0.0537 | 0.646 ± 0.006 | 0.596 ± 0.005
x1 = 0.0994 | 0.637 ± 0.006 | 0.588 ± 0.005
x1 = 0.1869 | 0.622 ± 0.005 | 0.574 ± 0.005
x1 = 0.357 | 0.599 ± 0.005 | 0.552 ± 0.005
x1 = 0.4049 | 0.593 ± 0.005 | 0.548 ± 0.005
x1 = 0.4939 | 0.585 ± 0.005 | 0.541 ± 0.005
x1 = 0.5929 | 0.579 ± 0.005 | 0.535 ± 0.005
x1 = 0.6953 | 0.574 ± 0.005 | 0.532 ± 0.005
x1 = 0.7941 | 0.573 ± 0.005 | 0.532 ± 0.005
x1 = 0.9017 | 0.573 ± 0.005 | 0.534 ± 0.005
x1 = 0.9369 | 0.574 ± 0.005 | 0.535 ± 0.005

O=C([O-])CC(O)(CC(=O)[O-])C(=O)[O-].[K+].[K+].[K+] + O
viscosity [mPa·s], [1], 101 kPa
Settings | 293.15 K | 298.15 K | 303.15 K | 308.15 K
x1 = 0.0025 | 1.072 ± 0.014 | 0.946 ± 0.012 | 0.844 ± 0.011 | 0.758 ± 0.01
x1 = 0.0089 | 1.265 ± 0.016 | 1.123 ± 0.014 | 1.003 ± 0.013 | 0.908 ± 0.012
x1 = 0.0177 | 1.478 ± 0.018 | 1.32 ± 0.016 | 1.187 ± 0.015 | 1.07 ± 0.014

CCCCN + CCO
viscosity [mPa·s], [1]
Settings | 298.15 K | 303.15 K | 313.15 K
100 kPa, x2 = 0.102 | 0.514 ± 0.021 | – | –
100 kPa, x2 = 0.15 | 0.542 ± 0.022 | – | –
100 kPa, x2 = 0.295 | 0.626 ± 0.026 | – | –
100 kPa, x2 = 0.449 | 0.749 ± 0.031 | – | –
100 kPa, x2 = 0.501 | 0.791 ± 0.032 | – | –
100 kPa, x2 = 0.595 | 0.872 ± 0.036 | – | –
100 kPa, x2 = 0.68 | 0.931 ± 0.038 | – | –
100 kPa, x2 = 0.752 | 0.977 ± 0.04 | – | –
100 kPa, x2 = 0.897 | 1.051 ± 0.043 | – | –
101.33 kPa, x1 = 0.1093 | – | 0.9614 ± 0.008 | 0.7843 ± 0.0067
101.33 kPa, x1 = 0.1943 | – | 0.9273 ± 0.0077 | 0.747 ± 0.0064
101.33 kPa, x1 = 0.2825 | – | 0.8774 ± 0.0073 | 0.7048 ± 0.0061
101.33 kPa, x1 = 0.4151 | – | 0.7915 ± 0.0067 | 0.6383 ± 0.0056
101.33 kPa, x1 = 0.5136 | – | 0.7146 ± 0.0061 | 0.5888 ± 0.0052
101.33 kPa, x1 = 0.6128 | – | 0.6369 ± 0.0055 | 0.5355 ± 0.0048
101.33 kPa, x1 = 0.7066 | – | 0.5687 ± 0.005 | 0.4844 ± 0.0044
101.33 kPa, x1 = 0.8039 | – | 0.5095 ± 0.0046 | 0.4428 ± 0.0041
101.33 kPa, x1 = 0.894 | – | 0.4717 ± 0.0043 | 0.4132 ± 0.0039

CC[N+](=O)[O-] + CC(C)(C)O
viscosity [mPa·s], [1], 101.33 kPa
Settings | 298.15 K | 303.15 K | 313.15 K
x2 = 0.0502 | 0.646 ± 0.006 | 0.61 ± 0.006 | 0.546 ± 0.005
x2 = 0.1001 | 0.647 ± 0.006 | 0.609 ± 0.006 | 0.544 ± 0.005
x2 = 0.1499 | 0.655 ± 0.006 | 0.615 ± 0.006 | 0.546 ± 0.005
x2 = 0.2002 | 0.67 ± 0.006 | 0.626 ± 0.006 | 0.547 ± 0.005
x2 = 0.2501 | 0.691 ± 0.006 | 0.643 ± 0.006 | 0.563 ± 0.005
x2 = 0.3001 | 0.718 ± 0.006 | 0.667 ± 0.006 | 0.58 ± 0.005
x2 = 0.35 | 0.753 ± 0.007 | 0.694 ± 0.006 | 0.597 ± 0.005
x2 = 0.4 | 0.794 ± 0.007 | 0.73 ± 0.006 | 0.622 ± 0.006
x2 = 0.4501 | 0.845 ± 0.007 | 0.778 ± 0.007 | 0.652 ± 0.006
x2 = 0.5001 | 0.909 ± 0.008 | 0.824 ± 0.007 | 0.687 ± 0.006
x2 = 0.55 | 0.988 ± 0.008 | 0.886 ± 0.008 | 0.728 ± 0.006
x2 = 0.6 | 1.075 ± 0.009 | 0.958 ± 0.008 | 0.777 ± 0.007
x2 = 0.6499 | 1.185 ± 0.01 | 1.047 ± 0.009 | 0.836 ± 0.007
x2 = 0.6998 | 1.323 ± 0.011 | 1.158 ± 0.01 | 0.907 ± 0.008
x2 = 0.7498 | 1.499 ± 0.012 | 1.3 ± 0.011 | 0.997 ± 0.008
x2 = 0.7998 | 1.73 ± 0.014 | 1.475 ± 0.012 | 1.104 ± 0.009
x2 = 0.8498 | 2.063 ± 0.016 | 1.728 ± 0.014 | 1.258 ± 0.01
x2 = 0.8997 | 2.505 ± 0.02 | 2.068 ± 0.016 | 1.449 ± 0.012
x2 = 0.95 | 3.231 ± 0.025 | 2.574 ± 0.02 | 1.718 ± 0.014
